Reference: PMC11233931, “Remodeling tumor‐associated macrophage for anti‐cancer effects by rational design of irreversible inhibition of mitogen‐activated protein kinase‐activated protein kinase 2” (MedComm, 2024)

Columns and labels:
Test in all cases: Eurofins kinase selectivity profile against 380 other human recombinant kinases (Table S2)
Type in all cases: biochemical
[1] = target: T1, 380 human recombinant protein kinases (Homo sapiens, UniProt O14757); settings: CHK1(h), read-out: Inhibition rate
T1 construct: purchased Eurofins (Celle Lévescault)
T1 sequence (O14757 1-476): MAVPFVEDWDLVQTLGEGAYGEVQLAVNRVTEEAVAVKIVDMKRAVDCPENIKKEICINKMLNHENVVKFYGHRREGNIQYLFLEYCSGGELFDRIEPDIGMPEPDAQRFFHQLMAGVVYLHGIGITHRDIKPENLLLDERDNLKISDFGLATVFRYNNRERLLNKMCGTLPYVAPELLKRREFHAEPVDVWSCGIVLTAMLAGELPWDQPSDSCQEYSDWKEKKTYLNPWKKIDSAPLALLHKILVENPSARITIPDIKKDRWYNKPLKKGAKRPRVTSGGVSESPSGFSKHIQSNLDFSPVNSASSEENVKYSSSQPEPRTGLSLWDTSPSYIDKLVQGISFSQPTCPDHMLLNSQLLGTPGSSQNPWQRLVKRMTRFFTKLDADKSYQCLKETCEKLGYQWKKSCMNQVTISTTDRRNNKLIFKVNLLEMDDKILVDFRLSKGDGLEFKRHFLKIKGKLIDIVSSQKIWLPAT
How it was run: (§1)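 Commercial selectivity screen of the test compound against a panel of 380 human recombinant protein kinases, run by an outside contractor at several compound concentrations to check whether its potency was specific for MK2.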

[2] = target: T2, 380 human recombinant protein kinases (Homo sapiens, UniProt P00519, H396P); settings: Abl (H396P) (h), read-out: Inhibition rate
T2 construct: purchased Eurofins (Celle Lévescault)
How it was run: as §1

[3] = target: T3, 380 human recombinant protein kinases (Homo sapiens, UniProt P51817); settings: PrKX(h), read-out: Inhibition rate
T3 construct: purchased Eurofins (Celle Lévescault)
T3 sequence (P51817 1-358): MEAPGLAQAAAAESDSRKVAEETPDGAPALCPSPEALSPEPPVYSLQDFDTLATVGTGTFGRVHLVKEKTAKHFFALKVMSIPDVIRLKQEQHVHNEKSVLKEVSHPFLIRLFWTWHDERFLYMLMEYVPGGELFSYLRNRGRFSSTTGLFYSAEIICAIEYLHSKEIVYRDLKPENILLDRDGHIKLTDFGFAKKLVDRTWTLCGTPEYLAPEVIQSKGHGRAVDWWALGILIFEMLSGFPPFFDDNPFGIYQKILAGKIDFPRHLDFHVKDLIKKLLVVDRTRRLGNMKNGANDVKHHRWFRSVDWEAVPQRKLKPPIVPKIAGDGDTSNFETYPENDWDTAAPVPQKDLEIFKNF
How it was run: as §1

[4] = target: T4, 380 human recombinant protein kinases (Homo sapiens, UniProt Q6P2M8); settings: CaMKIß(h), read-out: Inhibition rate
T4 construct: purchased Eurofins (Celle Lévescault)
How it was run: as §1

[5] = target: T5, 380 human recombinant protein kinases (Homo sapiens, UniProt Q8IU85); settings: CaMKIδ(h), read-out: Inhibition rate
T5 construct: purchased Eurofins (Celle Lévescault)
How it was run: as §1

[6] = target: T6, 380 human recombinant protein kinases (Homo sapiens, UniProt Q92772); settings: CDKL2(h), read-out: Inhibition rate
T6 construct: purchased Eurofins (Celle Lévescault)
T6 sequence (Q92772 1-493): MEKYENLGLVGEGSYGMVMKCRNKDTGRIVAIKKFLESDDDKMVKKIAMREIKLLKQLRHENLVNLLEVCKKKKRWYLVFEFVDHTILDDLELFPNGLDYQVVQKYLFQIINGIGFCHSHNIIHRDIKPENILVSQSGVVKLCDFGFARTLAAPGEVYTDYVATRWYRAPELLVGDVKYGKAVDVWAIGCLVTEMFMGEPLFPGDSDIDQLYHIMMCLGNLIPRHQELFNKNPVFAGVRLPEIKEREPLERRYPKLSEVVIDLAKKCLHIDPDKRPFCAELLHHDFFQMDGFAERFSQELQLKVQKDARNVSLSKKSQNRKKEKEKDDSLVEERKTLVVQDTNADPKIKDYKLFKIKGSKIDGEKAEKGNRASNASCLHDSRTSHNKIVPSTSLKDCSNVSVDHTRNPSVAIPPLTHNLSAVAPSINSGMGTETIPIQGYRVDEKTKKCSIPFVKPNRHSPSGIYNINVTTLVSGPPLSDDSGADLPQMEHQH
How it was run: as §1

[7] = target: T7, 380 human recombinant protein kinases (Homo sapiens, UniProt Q9HAZ1); settings: CLK4(h), read-out: Inhibition rate
T7 construct: purchased Eurofins (Celle Lévescault)
How it was run: as §1

[8] = target: T8, 380 human recombinant protein kinases (Homo sapiens, UniProt Q9HC98); settings: NEK6(h), read-out: Inhibition rate
T8 construct: purchased Eurofins (Celle Lévescault)
How it was run: as §1

[9] = target: T9, 380 human recombinant protein kinases (Homo sapiens, UniProt Q9NQU5); settings: PAK6(h), read-out: Inhibition rate
T9 construct: purchased Eurofins (Celle Lévescault)
How it was run: as §1

T9 sequence (Q9NQU5 whole entry): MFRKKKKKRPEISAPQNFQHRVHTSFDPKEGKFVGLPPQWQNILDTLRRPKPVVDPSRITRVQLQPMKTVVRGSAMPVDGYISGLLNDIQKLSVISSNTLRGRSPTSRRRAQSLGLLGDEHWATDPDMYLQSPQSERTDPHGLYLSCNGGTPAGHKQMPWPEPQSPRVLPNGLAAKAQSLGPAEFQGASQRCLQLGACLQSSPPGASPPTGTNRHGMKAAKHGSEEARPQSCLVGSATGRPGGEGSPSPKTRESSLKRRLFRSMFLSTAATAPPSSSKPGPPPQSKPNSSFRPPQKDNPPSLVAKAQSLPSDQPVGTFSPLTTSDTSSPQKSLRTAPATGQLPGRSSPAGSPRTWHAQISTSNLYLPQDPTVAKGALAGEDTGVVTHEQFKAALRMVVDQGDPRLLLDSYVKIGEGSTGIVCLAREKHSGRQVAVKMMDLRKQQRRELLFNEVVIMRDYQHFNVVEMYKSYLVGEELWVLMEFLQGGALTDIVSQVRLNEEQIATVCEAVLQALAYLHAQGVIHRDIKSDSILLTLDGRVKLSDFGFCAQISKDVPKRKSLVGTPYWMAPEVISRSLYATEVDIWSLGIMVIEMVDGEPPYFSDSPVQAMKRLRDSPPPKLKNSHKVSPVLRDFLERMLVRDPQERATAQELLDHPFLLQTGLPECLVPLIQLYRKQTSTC
T7 sequence (Q9HAZ1 whole entry): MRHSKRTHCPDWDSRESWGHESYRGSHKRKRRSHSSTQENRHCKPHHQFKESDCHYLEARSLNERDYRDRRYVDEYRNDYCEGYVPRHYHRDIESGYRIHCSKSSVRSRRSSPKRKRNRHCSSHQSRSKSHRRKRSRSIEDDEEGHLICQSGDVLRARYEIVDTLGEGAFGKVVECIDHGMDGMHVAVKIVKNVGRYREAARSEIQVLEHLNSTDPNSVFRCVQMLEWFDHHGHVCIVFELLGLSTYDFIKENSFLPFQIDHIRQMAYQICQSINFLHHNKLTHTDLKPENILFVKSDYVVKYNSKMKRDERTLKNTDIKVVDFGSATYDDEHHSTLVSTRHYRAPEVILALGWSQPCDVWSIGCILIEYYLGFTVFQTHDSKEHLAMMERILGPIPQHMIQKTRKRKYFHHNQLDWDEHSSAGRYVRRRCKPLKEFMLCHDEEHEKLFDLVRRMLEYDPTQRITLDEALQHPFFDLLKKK
T8 sequence (Q9HC98 whole entry): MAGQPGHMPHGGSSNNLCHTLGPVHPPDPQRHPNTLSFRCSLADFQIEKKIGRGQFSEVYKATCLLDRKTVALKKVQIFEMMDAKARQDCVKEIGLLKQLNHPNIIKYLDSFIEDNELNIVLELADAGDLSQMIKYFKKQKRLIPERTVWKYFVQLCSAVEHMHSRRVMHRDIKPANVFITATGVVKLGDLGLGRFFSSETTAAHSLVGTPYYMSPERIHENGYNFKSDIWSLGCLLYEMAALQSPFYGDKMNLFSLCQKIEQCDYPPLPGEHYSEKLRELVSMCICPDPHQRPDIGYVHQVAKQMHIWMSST
T5 sequence (Q8IU85 whole entry): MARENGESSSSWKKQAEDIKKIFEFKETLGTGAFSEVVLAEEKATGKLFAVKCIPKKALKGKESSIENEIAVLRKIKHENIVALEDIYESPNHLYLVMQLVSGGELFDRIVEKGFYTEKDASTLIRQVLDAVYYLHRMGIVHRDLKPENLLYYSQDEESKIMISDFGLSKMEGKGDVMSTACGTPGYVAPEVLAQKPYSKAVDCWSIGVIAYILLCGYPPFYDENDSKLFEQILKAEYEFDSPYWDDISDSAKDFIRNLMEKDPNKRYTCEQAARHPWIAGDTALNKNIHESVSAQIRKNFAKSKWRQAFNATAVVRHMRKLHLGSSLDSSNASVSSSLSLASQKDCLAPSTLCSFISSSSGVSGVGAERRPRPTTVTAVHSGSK
T4 sequence (Q6P2M8 whole entry): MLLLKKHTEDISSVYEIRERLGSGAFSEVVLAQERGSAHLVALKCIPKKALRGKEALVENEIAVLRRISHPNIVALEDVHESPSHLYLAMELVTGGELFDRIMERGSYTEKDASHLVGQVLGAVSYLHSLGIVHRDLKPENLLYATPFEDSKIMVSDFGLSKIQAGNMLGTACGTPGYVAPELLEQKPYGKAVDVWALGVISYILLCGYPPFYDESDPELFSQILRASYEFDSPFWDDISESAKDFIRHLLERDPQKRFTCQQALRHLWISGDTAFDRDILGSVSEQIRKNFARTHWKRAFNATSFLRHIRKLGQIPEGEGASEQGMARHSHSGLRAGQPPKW

SMILES: C=CC(=O)Nc1cc(-c2cc(-c3cc4c([nH]3)CCNC4=O)ccn2)ccc1OC(F)(F)F [compound 11]
- inhibition at 0.01 µM ([1]; 10 nM): 10%
- inhibition at 0.1 µM ([1]; 100 nM): 6%
- inhibition at 1 µM ([1]; 1000 nM): 6%
- inhibition at 0.01 µM ([2]; 10 nM): 6%
- inhibition at 0.1 µM ([2]; 100 nM): 3%
- inhibition at 1 µM ([2]; 1000 nM): 1%
- inhibition at 0.01 µM ([3]; 10 nM): 3%
- inhibition at 0.1 µM ([3]; 100 nM): 12%
- inhibition at 1 µM ([3]; 1000 nM): 11%
- inhibition at 0.01 µM ([4]; 10 nM): -6%
- inhibition at 0.1 µM ([4]; 100 nM): -2%
- inhibition at 1 µM ([4]; 1000 nM): -2%
- inhibition at 0.01 µM ([5]; 10 nM): -3%
- inhibition at 0.1 µM ([5]; 100 nM): -6%
- inhibition at 1 µM ([5]; 1000 nM): 1%
- inhibition at 0.01 µM ([6]; 10 nM): 31%
- inhibition at 0.1 µM ([6]; 100 nM): 50%
- inhibition at 1 µM ([6]; 1000 nM): 54%
- inhibition at 0.01 µM ([7]; 10 nM): -6%
- inhibition at 0.1 µM ([7]; 100 nM): 25%
- inhibition at 1 µM ([7]; 1000 nM): 76%
- inhibition at 0.01 µM ([8]; 10 nM): -4%
- inhibition at 0.1 µM ([8]; 100 nM): -5%
- inhibition at 1 µM ([8]; 1000 nM): -3%
- inhibition at 0.01 µM ([9]; 10 nM): -2%
- inhibition at 0.1 µM ([9]; 100 nM): -5%
- inhibition at 1 µM ([9]; 1000 nM): -2%
